Consider 1 substance from patent US12221494B2, “Short synthetic peptides and their uses for treating retinal degenerative diseases and/or tissue injuries” (MacKay Memorial Hospital, priority 2019, dated 2025).

Experiment [1] has as its system STZ-induced diabetic mice. Description: Vascular abnormalities (FITC-BSA hemorrhaging areas) in the retina of STZ-induced diabetic mice. The class given is in vivo, mouse. Particulars: 200 μM eye drop three times a day for 14 days, vehicle control 8.2±1.5. As to the method:
Diabetic mice were generated by intraperitoneal injection of streptozotocin (STZ; 200 mg/kg body weight) at day 1 and day 3. STZ was freshly prepared in 0.1 M citrate buffer (pH 4.5). After injection, mice were supplied with 10% sucrose overnight to prevent sudden hypoglycaemic shock. After 1 week (day 7), mice with non-fasting blood glucose levels >500 mg/dl were defined as diabetic and used for the experiments. Balanced salt solution (BSS) was served as peptide vehicle (Alcon, Novartis). 6-mer analogues (dissolved in BSS to 200 μM) eye drop were topically administered to eyes three times a day. After 2 weeks (day 14), mice were intraperitoneal injection of 100 mg/kg of FITC-BSA for further 30 min to determine vascular lesions (hemorrhaging areas) in retina. Subsequently, the animals were euthanized by CO2 inhalation, and the eyes were enucleated and fixed with 4% PFA for overnight at 4° Cand flat-mounted onto glass slides to obtain optical sections. Vascular lesions in the retina was scored in all four retinal quadrants of flat mounts by an epifluorescence microscopy at 200×. Three microscopic fields were sampled in each quadrant in both the central and peripheral retina, and data were presented as the average number of lesions/retina.
Microscopic appearance of degenerate capillaries in the I/R-induced retina are similar to that of acellular capillaries found in diabetic retinopathy. […]

Experiment [2] relates to IL-1β mRNA. The experiment in a line: Hyperosmotic stress-induced IL-1β gene expression in rabbit corneal epithelial cells (qPCR). The class given is cell-based. The conditions noted are these: 20 μM peptide 6 h, then hyperosmotic medium (463 mOsM) 3 h, solvent 4.5-fold. As to the method:
Total RNA was extracted from cells using TRIzol (Invitrogen). Synthesis of cDNA was performed with 1 μg of total RNA at 50° C. for 50 min using oligo(dT) primers and reverse transcriptase (Superscript III; Invitrogen). Briefly, quantification of cDNA was performed in the LightCycler (Roche, Mannheim, Germany) using the DNA Master SYBR Green I kit (Roche) with the following cycling conditions: initial denaturation at 95° C. for 10 min, followed by 40 cycles at 95° C. for 10 s, 60° C. for 10 s, and 72° C. for 10 s and a 5-min terminal incubation at 72° C. The data were calculated with AACt. The expression was then normalized against the expression of glyceraldehyde-3-phosphate dehydrogenase (GAPDH). The PCR primers were mouse Survivin sense, 5′-[…]-3′ (SEQ ID NO: 27), anti-sense, 5′-[…]-3′ (SEQ ID NO: 28) (accession number: NM_001012273.1; PCR product: 136 bp); mouse GAPDH sense, 5′-[…]-3′ (SEQ ID NO: 29), anti-sense, 5′-[…]-3′ (SEQ ID NO: 30) (NM_001289726.1; 149 bp). For analysis rabbit inflammatory gene expression, The PCR primers were rabbit TNF-αsense, 5′-[…]-3′ (SEQ ID NO: 31), anti-sense, 5′-[…]-3′ (SEQ ID NO: 32) (accession number: NM 001082263.1); rabbit IL-1βsense, 5′-[…]-3′(SEQ ID NO: 33), anti-sense, 5′-[…]-3′ (SEQ ID NO: 34) (NM 001082201.1); rabbit GAPDH sense, 5′-[…]-3′ (SEQ ID NO: 35), anti-sense, 5′-[…]-3′ (SEQ ID NO: 36) (accession number:NM 001082253.1). The cycle threshold (Ct) values of the PCR product and a GAPDH (Glyceraldehyde 3-phosphate dehydrogenase) control mRNA were used to calculate relative quantities of mRNA.
Limbal stem epithelial cells (LSEC) were isolated from 6-month-old New Zealand white rabbits and continuously cultivated for 14 days byDMEM/F-12basalmedium based cell-suspension culture to achieve corneal-liked epithelial cell differentiation as previously described (Ho et al., Stem Cells. 2013; 31:1775). […] After 3 h, quantitative real-time PCR was used to estimate HOP-induced Tumor necrosis factor (TNF)-α and nterleukin-1 beta (IL-1β) expressions. […]
On the technique in general: Real-time PCR tracks product formation cycle by cycle.

In the case of “NH2-(D-Ser)-Leu-Gly-Ala-Glu-Gln-COOH (SLGAEQ; HELM PEPTIDE1{[dS].L.G.A.E.Q}$$$$V2.0; SMILES CC(C)C[C@H](NC(=O)[C@H](N)CO)C(=O)NCC(=O)N[C@@H](C)C(=O)N[C@@H](CCC(=O)O)C(=O)N[C@@H](CCC(N)=O)C(=O)O) [6-mer dS]”, the “numbers of vascular lesions (hemorrhaging areas in a retina)” value in experiment [1] came to 2.8±0.6 lesions/retina. The “mRNA expression of IL-1β, in words” value in experiment [2] was “apparently repressed the mRNA expression of TNF-α and IL-1β”.
